Values quoted from earlier work as cited in EP1382610A2, “Conductive metal-containing nucleic acids” (The University of Saskatchewan, priority 1997, dated 1999).

Conditions: imino protons

## Nc1nc2nc[nH]c2c(=O)[nH]1 [G, guanine]
  pKa: 9.4

## Cc1c[nH]c(=O)[nH]c1=O [T, thymine]
  pKa: 9.9
